Laboratory results reported in patent publication US11512089B2, “Substituted [1,2,4]triazolo[3,4-a]phthalazines as modulators of GABAA receptor activity” (SHANGHAI SIMR BIOTECHNOLOGY CO., LTD, priority 2018, dated 2022).
In brackets after ≈: the same amount, converted by molar mass.

What was measured:
[1] = Kinetic solubility in 50 mM phosphate buffer pH 7.4; type: physicochemical; settings: aqueous buffer, kinetic from dmso stock, 50 mM phosphate buffer pH 7.4, 2% DMSO, room temperature
Method: 50 mM phosphate buffer pH=7.4: 0.39 g of NaH2PO4.2H2O, and 1.4025 g of Na2HPO4 were weighted and placed in an erlenmeyer flask, 240 mL of water was added. The solid was dissolved and mixed thoroughly, the pH value was adjusted to 7.4 with 10M NaOH solution, and the resulting solution was transferred to a 250 mL volumetric flask, followed by adding water to the mark.
Waters e2695 HPLC high performance liquid chromatography, Mettler XSE105 analytical balance.
Firstly, a 10 mM stock solution with DMSO as the solvent was prepared, and was diluted with a diluent (ACN: PB buffer 50:50) into 1 μM-200 μM as standard solution.
Kinetic solubility. 30 μL of the stock solution was placed in a 2 mL centrifuge tube, 1470 μL of 50 mM phosphate buffer (pH 7.4) (containing DMSO at a final concentration of 2%) was added. The mixture was shaken at room temperature (1000 rpm/min) for 24 hours, and then filtered. The filtrate was tested by high performance liquid chromatography (UV).

α5-GABAA receptor = target: T1, α5-GABAA receptor (Homo sapiens, UniProt P18507+P31644); test: Whole cell patch clamp, inverse agonism efficacy on GABA-induced current in HEK-293 cells expressing α5-GABAA receptor; type: cell-based; settings: HEK293; compound 100 nM, GABA 0.05 μM; ratio to reference compound Example 7 in CN106854207A in the same batch
T1 construct: expressed in transfected cells; host or cells: HEK-293 (monoclonal, stably transfected)
T1 sequence (P31644 32-462): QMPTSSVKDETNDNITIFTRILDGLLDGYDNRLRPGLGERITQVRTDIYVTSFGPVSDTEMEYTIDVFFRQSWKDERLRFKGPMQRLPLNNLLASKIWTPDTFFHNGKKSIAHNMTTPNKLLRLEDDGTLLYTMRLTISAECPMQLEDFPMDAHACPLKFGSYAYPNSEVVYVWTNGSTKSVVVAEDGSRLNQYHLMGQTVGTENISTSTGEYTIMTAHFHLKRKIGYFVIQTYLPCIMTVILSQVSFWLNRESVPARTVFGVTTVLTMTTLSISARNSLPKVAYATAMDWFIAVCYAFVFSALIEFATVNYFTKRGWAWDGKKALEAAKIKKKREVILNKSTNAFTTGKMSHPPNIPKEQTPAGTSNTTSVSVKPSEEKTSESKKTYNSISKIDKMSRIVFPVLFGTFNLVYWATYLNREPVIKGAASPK
T1 sequence (P28472 26-473 partner): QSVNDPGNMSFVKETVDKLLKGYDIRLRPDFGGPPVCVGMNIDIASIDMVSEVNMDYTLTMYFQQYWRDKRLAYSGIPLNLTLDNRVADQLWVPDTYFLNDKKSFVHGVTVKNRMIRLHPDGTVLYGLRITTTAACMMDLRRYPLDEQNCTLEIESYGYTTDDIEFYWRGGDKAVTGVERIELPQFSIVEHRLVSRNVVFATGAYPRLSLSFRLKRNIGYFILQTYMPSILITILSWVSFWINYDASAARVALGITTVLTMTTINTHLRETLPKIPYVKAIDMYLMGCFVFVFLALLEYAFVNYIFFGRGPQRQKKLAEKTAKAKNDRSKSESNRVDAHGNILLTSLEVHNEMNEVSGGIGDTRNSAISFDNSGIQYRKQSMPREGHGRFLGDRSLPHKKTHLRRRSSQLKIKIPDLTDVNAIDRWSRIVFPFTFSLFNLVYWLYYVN
T1 sequence (P18507 40-467 isoform P18507-1 limits assumed): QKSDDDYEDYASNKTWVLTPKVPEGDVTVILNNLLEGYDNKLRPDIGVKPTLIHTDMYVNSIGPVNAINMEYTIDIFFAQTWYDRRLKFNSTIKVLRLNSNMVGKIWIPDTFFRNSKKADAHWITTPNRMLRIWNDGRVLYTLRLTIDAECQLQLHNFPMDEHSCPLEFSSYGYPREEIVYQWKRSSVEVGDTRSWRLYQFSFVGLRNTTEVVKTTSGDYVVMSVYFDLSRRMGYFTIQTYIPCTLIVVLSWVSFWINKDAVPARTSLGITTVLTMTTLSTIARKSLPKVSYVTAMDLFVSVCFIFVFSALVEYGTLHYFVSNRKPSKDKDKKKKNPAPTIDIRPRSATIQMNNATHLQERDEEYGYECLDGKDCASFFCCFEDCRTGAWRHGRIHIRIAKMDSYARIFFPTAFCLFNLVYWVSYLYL
Method: The inventors used electrophysiological methods to determine the inverse agonist efficacy of the substances to be tested. The detailed procedures are as follows:
(1) Different subunits of GABAA receptors were expressed in human embryonic kidney cells 293 (HEK293). The cells were cultured in a culture medium and used as a cell model for screening potential analgesics. The α, β and γ subunits are necessary to form complete functional GABAA receptors. In this example, the inventors have established the following cell model: (a) α5 subunit (protein sequence is GenBank accession number: NM_000810.3), (33 subunit (protein sequence is GenBank accession number: NM_000814.5) and γ2 subunit (protein sequence is GenBank accession number: NM_000816.3) were expressed in HEK-293 cell line at the same time, followed by screening the monoclonal cell line. This cell line contained α5-GABAA receptor and had complete GABAA receptor function.
(2) The monoclonal stably transfected HEK-293 cells expressing α5-GABAA receptor were cultured in 10 cm culture dishes. The cells were passaged after reaching 80-90% confluence. During passaging, the culture medium was removed and discarded, 3 mL of DPBS (phosphate buffered saline, Gibco™) was added to the dishes, the dishes were shaken slightly, and DPBS was removed and discarded. 1 mL of trypsin (TrypLE Express, Gibco™) was added and the cells were digested at 37° C. for 1-2 minutes. Then 3 mL of complete medium (DMEM+10% FBS (Gibco™)) was added and the cells at the bottom of the culture dishes were dispersed. The cell suspension were transferred to a 15 mL centrifugal tube (Corning™) and then centrifuged at 200 g for 3 minutes. The supernatant was discarded, 4 mL of complete medium was added, and the cells were resuspended by gently blowing. The cell suspension was diluted by 1:5 or 1:10 for subculturing. The cell suspension was diluted by 1:12 for electrophysiology experiment, and added to a 24 well plate (Corning™) with a glass slide pre-treated with poly-D-lysine placed thereon; the experiment was initiated after the cells were adhered to the slide. The cells for electrophysiology experiment were maintained in culture for no more than 48 hours before use.
(3) Compound concentration: for screening, all compounds were diluted to a final concentration of 100 nM and the concentration of GABA was 0.05 μM. The compounds were at the concentration of 0.3 nM, 3 nM, 10 nM, 30 nM, 100 nM and 300 nM in dose-inverse agonism efficacy (%) experiment. The whole cell patch clamp technique was used in electrophysiology experiments, which can refer to the literature (I. Lecker, Y. Yin, D. S. Wang and B. A. Orser, (2013) Potentiation of GABAA receptor activity by volatile anaesthetics is reduced by α5-GABAA receptor-preferring inverse agonists, British Journal of Anaesthesia 110 (S1): i73-i81). The extracellular solution (ECS) contained: 150 mM NaCl, 5 mM KCl, 2.5 mM CaCl2, 1 mM MgCl2, 10 mM HEPES and 10 mM glucose (pH 7.4); Patch electrodes were filled with an intracellular solution containing: 140 mM CsCl, 11 mM EGTA, 10 mM HEPES, 2 mM CaCl2, 1 mM MgCl2, 4 mM MgATP, 2 mM TEA (pH 7.3). The currents were recorded by an EPC-10 amplifier and the PatchMaster software (HEKA). Patch electrodes with a resistance of 4-6 MΩ were pulled from borosilicate glass. The ALA-VC3-8PP™ system was used for extracellular administration. Separate cells that grew independently was selected for recording. During recording, the membrane voltage was clamped at −60 mV. During experiment, the cells were firstly perfused with ECS for 20 seconds. When the baseline reached to a stable state, the cells were then perfused with GABA solution. Then the current induced by GABA could be detected. After about 20 to 40 seconds, the current was stable. ECS was switched to compounds solution and the effects of the compounds were detected. At last, the perfusion solution was switched to ECS. […]

Structure (SMILES)	solubility kinetic at 24 h [1] [µg/mL]	Emax at 0.1 µM (α5-GABAA receptor) [%]
COCc1cc(-c2nnc3c4ccccc4c(OCc4ccc(C(=O)NCCF)cn4)nn23)no1 [Compound 22]	8.92 (≈ 18.7 µM)	–
COCc1cc(-c2nnc3c4ccccc4c(OCc4ccc(C(=O)NC5CCOC5)cn4)nn23)no1 (centres unmarked) [Compound 26, 6-[3-(5-methoxymethyl-isoxazol-3-yl)-[1,2,4]triazolo[3,4-a]phthalazin-6-yloxymethyl]-N-(tetrahydrofuran-3-yl)-nicotinamide]	20.3 (≈ 40.6 µM)	–
COCc1cc(-c2nnc3c4ccccc4c(OCc4ccc(C(=O)NC5(C#N)CC5)cn4)nn23)no1 [Compound 19]	1.06 (≈ 2.14 µM)	–
COCc1cc(-c2nnc3c4ccccc4c(OCc4ccc(C(=O)NCCO)cn4)nn23)no1 [Compound 16, N-(2-hydroxy-ethyl)-6-[3-(5-methoxymethyl-isoxazol-3-yl)-[1,2,4]triazolo[3,4-a]phthalazin-6-yloxymethyl]-nicotinamide]	49.4 (≈ 104 µM)	–
COCc1cc(-c2nnc3c4ccccc4c(OCc4ccc(C(=O)N[C@H](C)COC)cn4)nn23)no1 [Compound 09, (R)—N-(2-methoxy-1-methyl-ethyl)-6-[3-(5-methoxymethyl-isoxazol-3-yl)-[1,2,4]triazolo[3,4-a]phthalazin-6-yloxymethyl]-nicotinamide]	27.7 (≈ 55 µM)	–
COCc1cc(-c2nnc3c4ccccc4c(OCc4ccc(C(=O)NCC(F)(F)CO)cn4)nn23)no1 [Compound 25]	2.71 (≈ 5.16 µM)	–
COCc1cc(-c2nnc3c4ccccc4c(OCc4ccc(C(=O)NC5COC5)cn4)nn23)no1 [Compound 17, 6-[3-(5-methoxymethyl-isoxazol-3-yl)-[1,2,4]triazolo[3,4-a]phthalazin-6-yloxymethyl]-N-oxetan-3-yl-nicotinamide]	–	105
COCCCNC(=O)c1ccc(COc2nn3c(-c4cc(COC)on4)nnc3c3ccccc23)nc1 [Compound 08, 6-[3-(5-methoxymethyl-isoxazol-3-yl)-[1,2,4]triazolo[3,4-a]phthalazin-6-yloxymethyl]-N-(3-methoxy-propyl)-nicotinamide]	–	110
COCc1cc(-c2nnc3c4ccccc4c(OCc4ccc(C(=O)NC5CC(F)(F)C5)cn4)nn23)no1 [Compound 03, N-(3,3-difluoro-cyclobutyl)-6-[3-(5-methoxymethyl-isoxazol-3-yl)-[1,2,4]triazolo[3,4-a]phthalazin-6-yloxymethyl]-nicotinamide]	–	92.1
COCc1cc(-c2nnc3c4ccccc4c(OCc4ccc(C(=O)NCCOC(F)(F)F)cn4)nn23)no1 [Compound 13, 6-[3-(5-methoxymethyl-isoxazol-3-yl)-[1,2,4]triazolo[3,4-a]phthalazin-6-yloxymethyl]-N-(2-trifluoromethoxy-ethyl)-nicotinamide]	0.57 (≈ 1.05 µM)	–
COCc1cc(-c2nnc3c4ccccc4c(OCc4ccc(C(=O)NC5CCOCC5)cn4)nn23)no1 [Compound 04, 6-[3-(5-methoxymethyl-isoxazol-3-yl)-[1,2,4]triazolo[3,4-a]phthalazin-6-yloxymethyl]-N-(tetrahydro-pyran-4-yl)-nicotinamide]	13.1 (≈ 25.5 µM)	–
COCc1cc(-c2nnc3c4ccccc4c(OCc4ccc(C(=O)NC(C)C(F)(F)F)cn4)nn23)no1 (centres unmarked) [Compound 27]	5.58 (≈ 10.6 µM)	–
COCc1cc(-c2nnc3c4ccccc4c(OCc4ccc(C(=O)NC5CCC(F)(F)CC5)cn4)nn23)no1 [Compound 33]	2.99 (≈ 5.44 µM)	–
COCc1cc(-c2nnc3c4ccccc4c(OCc4ccc(C(=O)NC5CC(F)C5)cn4)nn23)no1 (centres unmarked) [Compound 21]	1.18 (≈ 2.34 µM)	–
COCc1cc(-c2nnc3c4ccccc4c(OCc4ccc(C(=O)NC(C)(C)COC)cn4)nn23)no1 [Compound 14, N-(2-methoxy-1,1-dimethyl-ethyl)-6-[3-(5-methoxymethyl-isoxazol-3-yl)-[1,2,4]triazolo[3,4-a]phthalazin 6-yloxymethyl]-nicotinamide]	35.7 (≈ 68.9 µM)	–

More lines, now with the values ahead:

solubility kinetic at 24 h [1] [µg/mL]	Emax at 0.1 µM (α5-GABAA receptor) [%]	Structure (SMILES)
–	94.6	COCc1cc(-c2nnc3c4ccccc4c(OCc4ccc(C(=O)N5CC(F)(F)C5)cn4)nn23)no1 [Compound 46, (3,3-difluoroazetidin-1-yl)(6-(((3-(5-(methoxymethyl)isoxazol-3-yl)[1,2,4]triazolo[3,4-a]phthalazin-6-yl)oxy)methyl)pyridin-3-yl)methanone]
26.5 (≈ 50 µM)	–	COCc1cc(-c2nnc3c4ccccc4c(OCc4ccc(C(=O)N5CCC(OC)CC5)cn4)nn23)no1 [Compound 57, (6-(((3-(5-(methoxymethyl)isoxazol-3-yl)-[1,2,4]triazolo[3,4-a]phthalazin-6-yl)oxy)methyl)pyridin-3-yl)(4-methoxypiperidin-1-yl)methanone]
51.9 (≈ 94.7 µM)	–	COCCN(CCOC)C(=O)c1ccc(COc2nn3c(-c4cc(COC)on4)nnc3c3ccccc23)nc1 [Compound 52]
5.62 (≈ 10.5 µM)	–	COCc1cc(-c2nnc3c4ccccc4c(OCc4ccc(C(=O)NC5CCC(F)(F)C5)cn4)nn23)no1 (centres unmarked) [Compound 35]
74.6 (≈ 141 µM)	–	COCc1cc(-c2nnc3c4ccccc4c(OCc4ccc(C(=O)N5CC(C)OC(C)C5)cn4)nn23)no1 (centres unmarked) [Compound 44]
6.57 (≈ 13.5 µM)	–	COCc1cc(-c2nnc3c4ccccc4c(OCc4ccc(C(=O)N5CC(O)C5)cn4)nn23)no1 [Compound 41]
1.46 (≈ 2.77 µM)	–	COCc1cc(-c2nnc3c4ccccc4c(OCc4ccc(C(=O)N(C)CC(F)(F)F)cn4)nn23)no1 [Compound 58]
28 (≈ 53 µM)	–	COCc1cc(-c2nnc3c4ccccc4c(OCc4ccc(C(=O)N5CCN(C)C(=O)C5)cn4)nn23)no1 [Compound 53]
3.88 (≈ 7.99 µM)	–	Cc1cc(-c2nnc3c4ccccc4c(OCc4ccc(C(=O)NC5CCOCC5)cn4)nn23)no1 [reference compound]
–	75.2	COCc1cc(-c2nnc3c4ccccc4c(OCc4ccc(C(=O)N5CCCCC5)cn4)nn23)no1 [Compound 49, (6-(((3-(5-(methoxymethyl)isoxazol-3-yl)-[1,2,4]triazolo[3,4-a]phthalazin-6-yl)oxy)methyl)pyridin-3-yl)(piperidin-1-yl)methanone]
5.62 (≈ 10.8 µM)	–	COCc1cc(-c2nnc3c4ccccc4c(OCc4ccc(C(=O)N5CCC(F)(F)C5)cn4)nn23)no1 [Compound 51]
3.75 (≈ 7.72 µM)	–	COCc1cc(-c2nnc3c4ccccc4c(OCc4ccc(C(=O)N(C)C5CC5)cn4)nn23)no1 [Compound 50]
102 (≈ 197 µM)	–	COCc1cc(-c2nnc3c4ccccc4c(OCc4ccc(C(=O)N5CCCOCC5)cn4)nn23)no1 [Compound 55]
0.8 (≈ 1.85 µM)	–	COCc1cc(-c2nnc3c4ccccc4c(OCc4ccc(C(N)=O)cn4)nn23)no1 [Compound 36]
